Broadly, the ED50 is the dose at which the effect has come halfway, by size or by number of responders.

Results on 2 molecules are retold here after patent US8859543B2, “Imidazo[1,2-a]pyrazine derivatives and their use for the prevention or treatment of neurological, psychiatric and metabolic disorders and diseases” (Janssen Pharmaceutica NV, priority 2010, dated 2014).

SMILES strings stand for the structures. Read-outs that look alike come from different tables or passages of the source.

One assay deals with PDE9A (Homo sapiens, UniProt O76083). In words: In vitro PDE selectivity assay, PDE9A. The class given is biochemical. The note with it: Table 4a in vitro selectivity; read-out: IC50 PDE type 9A. The protocol: (§1) Rat recombinant PDE10A (rPDE10A2) was expressed in Sf9 cells using a recombinant rPDE10A baculovirus construct. Cells were harvested after 48 h of infection and the rPDE10A protein was purified by metal chelate chromatography on Ni-sepharose 6FF. […] The reaction was incubated for 60 min. at RT. […] After sedimentation of the beads during 30 min. the radioactivity was measured in a Perkin Elmer Topcount scintillation counter and results were expressed as cpm. For blank values the enzyme was omitted from the reaction and replaced by incubation buffer. […] The same assay principle is applied for the measurement of the affinity of the compound for other members of the PDE family with appropriate modifications in incubation buffer, substrate concentration, incubation time and stop solution.
PDE9A, sequence (O76083 whole entry): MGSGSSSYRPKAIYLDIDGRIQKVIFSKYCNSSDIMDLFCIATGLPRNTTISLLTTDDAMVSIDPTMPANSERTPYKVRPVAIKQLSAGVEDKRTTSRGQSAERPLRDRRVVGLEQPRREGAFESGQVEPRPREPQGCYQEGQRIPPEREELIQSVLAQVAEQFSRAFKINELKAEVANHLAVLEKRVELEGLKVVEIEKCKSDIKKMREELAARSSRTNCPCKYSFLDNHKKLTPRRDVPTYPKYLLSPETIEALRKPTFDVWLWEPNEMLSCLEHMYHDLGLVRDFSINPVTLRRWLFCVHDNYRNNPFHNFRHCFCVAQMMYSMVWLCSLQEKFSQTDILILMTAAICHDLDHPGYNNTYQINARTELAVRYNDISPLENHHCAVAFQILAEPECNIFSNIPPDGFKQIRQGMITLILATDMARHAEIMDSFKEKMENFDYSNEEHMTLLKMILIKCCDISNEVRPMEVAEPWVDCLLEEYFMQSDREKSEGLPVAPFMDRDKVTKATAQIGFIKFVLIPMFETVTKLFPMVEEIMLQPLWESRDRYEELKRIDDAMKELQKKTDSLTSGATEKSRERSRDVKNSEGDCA

The next assay deals with PDE1B (Homo sapiens, UniProt Q01064). In words: In vitro PDE selectivity assay, PDE1B. The following applies: Table 4a in vitro selectivity; read-out: IC50 PDE type 1B. Type of assay: biochemical. The protocol: as §1
PDE1B, sequence (Q01064 whole entry): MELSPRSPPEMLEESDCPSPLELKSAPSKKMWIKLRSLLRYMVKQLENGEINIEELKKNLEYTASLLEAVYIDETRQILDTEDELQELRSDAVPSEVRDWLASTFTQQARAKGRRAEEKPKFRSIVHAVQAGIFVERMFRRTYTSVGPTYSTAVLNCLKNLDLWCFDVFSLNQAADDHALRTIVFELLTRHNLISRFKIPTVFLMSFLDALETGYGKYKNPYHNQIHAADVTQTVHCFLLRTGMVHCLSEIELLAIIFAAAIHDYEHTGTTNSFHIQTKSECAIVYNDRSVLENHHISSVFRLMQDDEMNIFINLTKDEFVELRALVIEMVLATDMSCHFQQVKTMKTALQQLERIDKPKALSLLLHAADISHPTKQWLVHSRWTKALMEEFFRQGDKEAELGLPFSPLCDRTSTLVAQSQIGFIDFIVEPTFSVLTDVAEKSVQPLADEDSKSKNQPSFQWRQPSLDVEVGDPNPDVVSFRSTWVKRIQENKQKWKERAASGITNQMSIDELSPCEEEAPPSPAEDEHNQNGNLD
Assay [1] addresses T1, Rat recombinant PDE10A (rPDE10A2) (Rattus norvegicus, UniProt Q9QYJ6).
T1 construct: made in house; host or cells: Sf9 insect cells, baculovirus
T1 sequence (Q9QYJ6 1-794): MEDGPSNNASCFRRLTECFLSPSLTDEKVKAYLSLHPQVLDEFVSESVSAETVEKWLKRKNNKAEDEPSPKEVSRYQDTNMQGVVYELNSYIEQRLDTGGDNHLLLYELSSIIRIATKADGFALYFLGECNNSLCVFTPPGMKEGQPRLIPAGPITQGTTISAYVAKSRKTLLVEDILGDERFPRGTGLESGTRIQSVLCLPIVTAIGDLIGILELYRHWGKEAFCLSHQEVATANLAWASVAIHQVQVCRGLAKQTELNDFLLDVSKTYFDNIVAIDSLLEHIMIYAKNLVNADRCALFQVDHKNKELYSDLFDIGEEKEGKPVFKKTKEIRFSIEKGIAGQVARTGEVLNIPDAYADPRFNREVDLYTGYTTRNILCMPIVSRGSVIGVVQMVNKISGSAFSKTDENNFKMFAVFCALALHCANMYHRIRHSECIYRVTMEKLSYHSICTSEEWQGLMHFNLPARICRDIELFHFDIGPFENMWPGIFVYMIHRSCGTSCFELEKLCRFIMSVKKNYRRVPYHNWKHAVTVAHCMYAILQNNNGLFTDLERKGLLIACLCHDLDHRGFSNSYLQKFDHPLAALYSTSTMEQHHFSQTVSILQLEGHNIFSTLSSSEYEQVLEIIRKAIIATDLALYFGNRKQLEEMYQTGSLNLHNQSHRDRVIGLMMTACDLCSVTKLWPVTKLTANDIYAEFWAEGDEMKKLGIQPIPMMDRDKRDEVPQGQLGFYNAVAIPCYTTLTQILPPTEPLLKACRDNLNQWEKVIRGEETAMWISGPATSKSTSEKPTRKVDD
Nature of the assay: In vitro assay PDE10A (SPA, 3H-cAMP). The class given is biochemical. In a few lines:
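Purified Sf9-expressed rat PDE10A2 incubated 60 min at RT with 60 nM cAMP plus 0.008 μCi 3H-cAMP in 50 mM Tris pH 7.8, 8.3 mM MgCl2, 1.7 mM EGTA, 1% DMSO final. Product quantified by scintillation proximity counting against no-enzyme blanks and DMSO controls.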

The next assay concerns the target PDE5A (Homo sapiens, UniProt O76074). In words: In vitro PDE selectivity assay, PDE5A. The class given is biochemical. The note with it: Table 4a in vitro selectivity; read-out: IC50 PDE type 5A. The protocol:
as §1

The target of the next assay is PDE4D (Homo sapiens, UniProt Q08499). Nature of the assay: In vitro PDE selectivity assay, PDE4D. Type of assay: biochemical. The note with it: Table 4a in vitro selectivity; read-out: IC50 PDE type 4D. The protocol: as §1
The next assay deals with PDE11A (Homo sapiens, UniProt Q9HCR9). Nature of the assay: In vitro PDE selectivity assay, PDE11A. The note with it: Table 4a in vitro selectivity; read-out: IC50 PDE type 11A. Type of assay: biochemical. The protocol:
as §1

In another assay the target is PDE7A (Homo sapiens, UniProt Q13946). In words: In vitro PDE selectivity assay, PDE7A. The following applies: Table 4a in vitro selectivity; read-out: IC50 PDE type 7A. Type of assay: biochemical. The protocol: as §1
PDE7A, sequence (Q13946 whole entry, species assumed): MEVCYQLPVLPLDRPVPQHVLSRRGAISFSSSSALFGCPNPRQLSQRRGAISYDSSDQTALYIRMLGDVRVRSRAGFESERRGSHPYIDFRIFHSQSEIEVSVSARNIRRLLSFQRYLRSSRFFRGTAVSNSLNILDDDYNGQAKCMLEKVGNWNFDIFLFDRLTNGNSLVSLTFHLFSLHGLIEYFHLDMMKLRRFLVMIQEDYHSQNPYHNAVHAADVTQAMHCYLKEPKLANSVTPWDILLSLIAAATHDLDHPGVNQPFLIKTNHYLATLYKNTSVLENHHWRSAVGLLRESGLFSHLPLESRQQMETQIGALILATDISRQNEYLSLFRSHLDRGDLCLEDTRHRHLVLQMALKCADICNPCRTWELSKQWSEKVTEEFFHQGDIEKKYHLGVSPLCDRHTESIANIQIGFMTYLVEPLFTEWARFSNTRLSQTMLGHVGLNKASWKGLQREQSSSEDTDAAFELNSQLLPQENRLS
The target of the next assay is PDE2A (Homo sapiens, UniProt O00408). In words: In vitro PDE selectivity assay, PDE2A. Type of assay: biochemical. The note with it: Table 4a in vitro selectivity; read-out: IC50 PDE type 2A. The protocol:
as §1

A further assay addresses PDE3A (Homo sapiens, UniProt Q14432). In words: In vitro PDE selectivity assay, PDE3A. The class given is biochemical. The following applies: Table 4a in vitro selectivity; read-out: IC50 PDE type 3A. The protocol: as §1
Assay [2] relates to apomorphine-induced stereotypy. In words: Apomorphine-induced stereotypy in rats (APO). Type of assay: in vivo. The following applies: Rattus norvegicus, read-out: APO ED50. The protocol: Apomorphine-Induced Stereotypy in Rats (APO)
Apomorphine (1.0 mg/kg, i.v.)-induced stereotypy (compulsive sniffing, licking, chewing) was scored every 5 min. over the first hour after injection of apomorphine, following a 1 hour interval pre-treatment with the test compound. The score system was: (3) pronounced, (2) moderate, (1) slight, and (O) absent.

The subject of assay [3] is scopolamine induced memory deficit. Nature of the assay: Object recognition test (scopolamine induced memory deficit). The class given is in vivo, rat. The following applies: rats. The protocol: They were kept under a 12/12-hour light/dark cycle (lights on from 19.00 to 7.00 h) and had free access to food and water. […] A radio, which was playing softly, provided background noise in the room. […] The apparatus consisted of a circular arena, 83 cm in diameter. […] The light intensity was equal in the different parts of the apparatus, as fluorescent red tubes provided a constant illumination of about 20 lux on the floor of the apparatus. […] Each object was available in triplicate. Four different sets of objects were used. A testing session consisted of two trials. […] During the first trial (T1) the apparatus contained two identical objects (samples). Rats were placed in the apparatus facing the wall at the middle of the front (transparent) segment. After the first exploration period the rat was put back in its home cage. […] Exploration was defined as follows: directing the nose to the object at a distance of no more than 2 cm and/or touching the object with the nose. Sitting on the object was not considered as exploratory behavior.

PDE2A, sequence (O00408 whole entry, species assumed): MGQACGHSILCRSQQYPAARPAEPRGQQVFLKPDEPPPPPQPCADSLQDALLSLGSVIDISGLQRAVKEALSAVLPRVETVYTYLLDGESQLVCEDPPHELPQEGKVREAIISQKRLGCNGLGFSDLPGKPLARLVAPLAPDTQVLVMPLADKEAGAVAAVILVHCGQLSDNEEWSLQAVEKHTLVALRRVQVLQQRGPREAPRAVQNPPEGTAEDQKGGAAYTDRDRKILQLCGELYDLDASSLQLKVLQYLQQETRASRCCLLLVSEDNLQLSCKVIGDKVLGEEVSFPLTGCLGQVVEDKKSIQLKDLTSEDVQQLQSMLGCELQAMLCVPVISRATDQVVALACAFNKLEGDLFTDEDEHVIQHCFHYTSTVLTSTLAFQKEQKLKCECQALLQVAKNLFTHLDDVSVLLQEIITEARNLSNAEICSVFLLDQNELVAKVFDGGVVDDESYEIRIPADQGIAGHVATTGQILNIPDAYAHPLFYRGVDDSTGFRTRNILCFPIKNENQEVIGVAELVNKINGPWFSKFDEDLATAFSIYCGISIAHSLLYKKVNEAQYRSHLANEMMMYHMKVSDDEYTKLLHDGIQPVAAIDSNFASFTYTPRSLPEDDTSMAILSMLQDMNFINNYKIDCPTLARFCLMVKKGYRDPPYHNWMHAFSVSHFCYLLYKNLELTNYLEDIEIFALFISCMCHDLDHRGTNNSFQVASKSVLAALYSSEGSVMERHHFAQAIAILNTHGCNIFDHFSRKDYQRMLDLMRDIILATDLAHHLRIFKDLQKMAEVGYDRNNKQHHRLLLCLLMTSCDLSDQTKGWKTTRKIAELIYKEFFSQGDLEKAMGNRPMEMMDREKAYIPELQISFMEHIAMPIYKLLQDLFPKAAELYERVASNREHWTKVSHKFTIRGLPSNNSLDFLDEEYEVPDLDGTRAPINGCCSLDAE
PDE3A, sequence (Q14432 whole entry): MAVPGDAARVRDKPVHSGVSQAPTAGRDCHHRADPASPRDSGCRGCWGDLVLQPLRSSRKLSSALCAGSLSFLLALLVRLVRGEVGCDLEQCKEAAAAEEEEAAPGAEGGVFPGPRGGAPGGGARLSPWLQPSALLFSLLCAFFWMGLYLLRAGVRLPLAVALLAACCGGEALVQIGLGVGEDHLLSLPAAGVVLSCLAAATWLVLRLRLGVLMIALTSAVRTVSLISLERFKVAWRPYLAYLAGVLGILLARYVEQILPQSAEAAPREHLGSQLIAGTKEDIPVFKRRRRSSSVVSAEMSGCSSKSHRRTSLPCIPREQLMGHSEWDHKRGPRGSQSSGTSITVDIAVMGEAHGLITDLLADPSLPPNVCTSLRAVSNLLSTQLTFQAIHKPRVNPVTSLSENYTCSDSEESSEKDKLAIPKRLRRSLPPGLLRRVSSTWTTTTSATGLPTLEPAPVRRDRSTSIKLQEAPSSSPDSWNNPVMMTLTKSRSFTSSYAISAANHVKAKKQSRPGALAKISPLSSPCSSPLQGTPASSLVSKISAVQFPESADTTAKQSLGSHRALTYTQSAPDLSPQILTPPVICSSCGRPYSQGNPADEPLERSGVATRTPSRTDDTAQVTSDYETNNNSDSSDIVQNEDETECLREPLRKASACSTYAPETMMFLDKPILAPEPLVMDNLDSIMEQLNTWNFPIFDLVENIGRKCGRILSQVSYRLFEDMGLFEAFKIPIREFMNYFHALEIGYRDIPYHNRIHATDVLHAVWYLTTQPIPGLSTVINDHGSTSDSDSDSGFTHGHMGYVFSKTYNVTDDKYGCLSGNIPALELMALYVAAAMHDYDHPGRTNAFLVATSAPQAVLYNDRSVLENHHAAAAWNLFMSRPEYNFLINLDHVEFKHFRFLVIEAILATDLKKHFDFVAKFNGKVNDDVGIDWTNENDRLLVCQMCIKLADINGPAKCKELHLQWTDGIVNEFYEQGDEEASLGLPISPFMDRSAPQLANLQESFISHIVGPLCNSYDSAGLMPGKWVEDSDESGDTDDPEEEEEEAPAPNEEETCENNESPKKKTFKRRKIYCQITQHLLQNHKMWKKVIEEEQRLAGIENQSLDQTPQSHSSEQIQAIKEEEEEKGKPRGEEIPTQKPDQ
PDE11A, sequence (Q9HCR9 whole entry, species assumed): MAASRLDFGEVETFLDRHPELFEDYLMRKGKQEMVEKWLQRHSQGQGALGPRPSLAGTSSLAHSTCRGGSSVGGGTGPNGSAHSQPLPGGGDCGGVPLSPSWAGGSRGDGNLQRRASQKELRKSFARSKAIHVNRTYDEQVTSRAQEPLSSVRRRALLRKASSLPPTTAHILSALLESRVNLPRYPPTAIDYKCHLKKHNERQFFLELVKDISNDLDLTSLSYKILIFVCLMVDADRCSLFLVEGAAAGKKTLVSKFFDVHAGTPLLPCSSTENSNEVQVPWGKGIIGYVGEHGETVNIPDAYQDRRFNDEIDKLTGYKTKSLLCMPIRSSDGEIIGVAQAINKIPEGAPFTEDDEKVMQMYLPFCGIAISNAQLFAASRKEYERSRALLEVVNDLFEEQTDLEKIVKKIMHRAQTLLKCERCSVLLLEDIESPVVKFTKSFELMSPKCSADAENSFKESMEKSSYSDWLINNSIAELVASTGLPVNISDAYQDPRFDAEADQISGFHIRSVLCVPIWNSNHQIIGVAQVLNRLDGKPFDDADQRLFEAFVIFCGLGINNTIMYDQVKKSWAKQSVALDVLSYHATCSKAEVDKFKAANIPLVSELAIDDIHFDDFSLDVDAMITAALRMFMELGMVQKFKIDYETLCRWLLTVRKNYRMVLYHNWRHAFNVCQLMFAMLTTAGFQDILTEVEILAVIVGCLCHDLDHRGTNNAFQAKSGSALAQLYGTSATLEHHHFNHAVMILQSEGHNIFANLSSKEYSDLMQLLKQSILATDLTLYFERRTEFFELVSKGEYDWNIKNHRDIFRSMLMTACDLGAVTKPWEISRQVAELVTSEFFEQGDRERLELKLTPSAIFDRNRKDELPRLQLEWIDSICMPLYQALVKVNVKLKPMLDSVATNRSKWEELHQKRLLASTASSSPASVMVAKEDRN

For the molecule `COCCc1ncc(-c2c(C)nc3c(N4CCOCC4)nccn23)cn1` [compound 33, 3-[2-(2-Methoxy-ethyl)-pyrimidin-5-yl]-2-methyl-8-morpholin-4-yl-imidazo[1,2-a]pyrazine], the IC50 was > 10 µM on PDE9A; 2950 nM on PDE1B; 500 nM in [1] (Table 4a in vitro selectivity, read-out: IC50 PDE type 10A); 148 nM in assay [1] (pIC50 corresponds to the -log IC50 expressed in mol/L, read-out: PDE10A2 pIC50 (converted)); > 10 µM at PDE5A; > 10 µM at PDE4D. Moreover, the IC50 on PDE11A, at PDE7A, at PDE2A and at PDE3A was > 10 µM in each case. In addition, the ED50 in assay [2] came out at 0.8 mg/kg.

As for `COc1cc2ncnc(N3CC[C@@H](Oc4cnc5ccccc5n4)C3)c2cc1OC` [PQ10, 6,7-dimethoxy-4-[3(R)-(quinoxalin-2-yloxy)pyrrolidin-1-yl]quinazoline], the “index of discrimination (d2), mean” value in assay [3] (1 mg/kg p.o. + Scop. 0.1 mg/kg, 1 h delay) worked out at 0.27. Besides, the “discrimination compared to the vehicle/scopolamine condition (post-hoc analysis)” value in assay [3] (1 mg/kg p.o. + scopolamine) is recorded as “significantly better discrimination”.
